Assay results reported in patent US11691950B2, “Isoquinoline-steroid conjugates and uses thereof” (priority 2018, dated 2023).
Counter-ions that a name gives are not always drawn.

Columns and labels:
TNFα = TNFα secretion assay (LPS-treated RAW264.7 macrophages, ELISA); format: cell-based, murine; conditions: RAW264.7 cells, 4 hrs
Method: The TNFα assay quantifies secreted TNFα from RAW264.7 immortalized murine macrophages as an indicator of inflammation. The cells were concurrently treated with LPS (as an inducer of inflammation) and a titration of test molecules or control compounds for 4 hrs. After the incubation period, the media was harvested and assayed via an ELISA assay. ODs of experimental samples are fit to those of a standard curve to extrapolate the TNFα concentration. IC50 values were calculated by fitting a curve to experimental values with the controls as the top and bottom limits of the curve. Selected compounds provided herein were subjected to this assay.

TOX = TOX assay; format: cell-based; conditions: HCl salt
Method: Inhibition of various kinases was assayed.

myeloperoxidase activity = test: Myeloperoxidase (MPO) activity after intravitreal LPS in mice; format: in vivo, C57B16 male mice; conditions: dosed at 0 and 6 hours, collected 24 hours
Method: Adult C57B16 male mice were injected with 2 ng of lipopolysaccharide (LPS) intravitreally. The mice were then dosed with vehicle, compounds or control treatments (0.07% w/w, 0.02% w/w or 0.007% w/w) at times 0 and 6 hours post-injection. Aqueous humor (AH) and vitreous humor (VH) was collected 24 hours after injection of LPS and assayed for MPO activity by ELISA. Data is a compilation of two separate experiments. Statistical analysis was carried out on GraphPad prism using a multiple comparisons 1-way ANOVA with uncorrected Dunn's test. Results are shown in FIG. 5 (aqueous humor) and FIG. 6 (vitreous humor). In FIG. 5 and FIG. 6, Dex refers to dexamethasone, Compound A refers to (S)-3-amino-2-(4-(hydroxymethyl)phenyl)-N-(isoquinolin-6-yl)propanamide, *refers to p<0.05, and **refers to p<0.005. MPO levels correspond to levels of neutrophil infiltration. In the context of non-infectious inflammatory events, neutrophils cause robust levels of damage to tissues.

Row | SMILES | IC50 (TOX) | other results
1 | CC(C)(C)OC(=O)NC[C@@H](C(=O)Nc1ccc2cnccc2c1)c1ccc(COC(=O)CCC(=O)OCC(=O)[C@@]2(O)CC[C@H]3[C@@H]4CCC5=CC(=O)C=C[C@]5(C)[C@H]4[C@@H](O)C[C@@]32C)cc1 [Example 14] | – | IC50 (TNFα): 0.621 µM
2 | C[C@@H]1C[C@H]2[C@@H]3CCC4=CC(=O)C=C[C@]4(C)[C@@]3(F)[C@@H](O)C[C@]2(C)[C@@]1(O)C(=O)COC(=O)C[C@H](N)C(=O)OCc1ccc([C@@H](CN)C(=O)Nc2ccc3cnccc3c2)cc1 [Example 83, 1-(4-((S)-3-amino-1-(isoquinolin-6-ylamino)-1-oxopropan-2-yl)benzyl) 4-(2-((8S,9R,10S,11S,13S,14S,16R,17R)-9-fluoro-11,17-dihydroxy-10,13,16-trimethyl-3-oxo-6,7,8,9,10,11,12,13,14,15,16,17-dodecahydro-3H-cyclopenta[a]phenanthren-17-yl)-2-oxoethyl) L-aspartate trihydrochloride] | 100 µM | –
3 | C[C@@H]1C[C@H]2[C@@H]3CCC4=CC(=O)C=C[C@]4(C)[C@@]3(F)[C@@H](O)C[C@]2(C)[C@@]1(O)C(=O)COC(=O)c1ccc(C(=O)OCc2ccc([C@@H](CN)C(=O)Nc3ccc4cnccc4c3)cc2)cc1 [Example 66, 4-((S)-3-amino-1-(isoquinolin-6-ylamino)-1-oxopropan-2-yl)benzyl (2-((8S,9R,10S,11S,13S,14S,16R,17R)-9-fluoro-11,17-dihydroxy-10,13,16-trimethyl-3-oxo-6,7,8,9,10,11,12,13,14,15,16,17-dodecahydro-3H-cyclopenta[a]phenanthren-17-yl)-2-oxoethyl) terephthalate dihydrochloride] | 100 µM | –
4 | C[C@@H]1C[C@H]2[C@@H]3CCC4=CC(=O)C=C[C@]4(C)[C@@]3(F)[C@@H](O)C[C@]2(C)[C@@]1(O)C(=O)COC(=O)C1CC1C(=O)OCc1ccc([C@@H](CN)C(=O)Nc2ccc3cnccc3c2)cc1 (some centres unmarked) [Example 27] | 100 µM | –
5 | CC1(C)O[C@@H]2C[C@H]3[C@@H]4CCC5=CC(=O)C=C[C@]5(C)[C@@]4(F)[C@@H](O)C[C@]3(C)[C@]2(C(=O)COC(=O)CCC(=O)OCc2ccc([C@@H](CN)C(=O)Nc3ccc4cnccc4c3)cc2)O1 [Example 33] | 55.2 µM | myeloperoxidase activity in aqueous humor (myeloperoxidase activity; FIG. 5): inhibiting effect; myeloperoxidase activity in vitreous humor (myeloperoxidase activity; FIG. 6): inhibiting effect
6 | C[C@@H]1C[C@H]2[C@@H]3CCC4=CC(=O)C=C[C@]4(C)[C@@]3(F)[C@@H](O)C[C@]2(C)[C@@]1(O)C(=O)COC(=O)CCC(=O)OCc1ccc([C@@H](CN)C(=O)Nc2ccc3cnccc3c2)cc1 [Example 25] | 100 µM | –
